Results: US8629159B2, “Thiazolidinedione analogues” (Metabolic Solutions Development Company, LLC, priority 2006, dated 2014)

Assays:
PPARγ = target: T1, PPARγ (Homo sapiens, UniProt P37231); test: commercial PPARγ binding assay (Invitrogen; PPAR-LBD/Fluormone PPAR Green complex); conditions: for Binding to PPARγ (Fluormone displacement signal): mean of three experiments
T1 construct: purchased Invitrogen Corporation, Carlsbad, Calif
T1 sequence (P37231 238-503 limits assumed): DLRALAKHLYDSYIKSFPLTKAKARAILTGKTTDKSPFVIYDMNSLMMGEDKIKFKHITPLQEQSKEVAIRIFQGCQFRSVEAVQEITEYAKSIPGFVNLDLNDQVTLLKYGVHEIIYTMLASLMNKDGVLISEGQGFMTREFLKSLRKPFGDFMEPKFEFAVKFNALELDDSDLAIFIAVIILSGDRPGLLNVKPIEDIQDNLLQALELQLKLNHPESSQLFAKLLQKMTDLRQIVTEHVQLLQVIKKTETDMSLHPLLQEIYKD
Protocol: The ability of several exemplary compounds of the present invention, shown in Table A, to bind to PPARγ was measured using a commercial binding assay (Invitrogen Corporation, Carlsbad, Calif.) that measures the test compounds ability to bind with PPAR-LBD/Fluormone PPAR Green complex. These assays were performed on three occasions with each assay using four separate wells (quadruplicate) at each concentration of tested compound. The data are mean and SEM of the values obtained from the three experiments. […] Compounds were added at the concentrations shown, which range from 0.1-100 micromolar.

[1] = tested on: Male Dahl salt-sensitive rats; test: Antihypertensive action in hypertensive Dahl salt-sensitive rats (high salt diet), mean blood pressure by direct femoral arterial cannulation; format: in vivo, rat; conditions: oral gavage daily, Compound 1 40 mg/kg/day, HCTZ 5 mg/kg/day
Protocol: Male Dahl salt-sensitive rats were made hypertensive by feeding of a high salt diet (4% salt) for 3 weeks and then treated daily with the indicated dose of hydrochlorothiazide (HCTZ), compound 1, or the combination of HCTZ and compound 1, as compared to the vehicle alone (1% carboxymethylcellulose/0.01% Tween 20) by oral gavage for 8 days. Mean blood pressure was measured by direct femoral arterial cannulation under fed conditions on day 7 and after a 6 hour fast on day 8.
Referring to FIG. 2 and Table C above, the antihypertensive action of compound 1 is additive with hydrocholothiazide (HCTZ). Data are mean and (SEM) mean blood pressure taken by direct cannulation. N=5; * p<0.05 less than blood pressure in HCTZ-treated rats.

Binding to PPARγ (Fluormone displacement signal) (PPARγ; 1 μM compound) | Binding to PPARγ (Fluormone displacement signal) (PPARγ; 3 μM compound) | Binding to PPARγ (Fluormone displacement signal) (PPARγ; 10 μM compound) | Binding to PPARγ (Fluormone displacement signal) (PPARγ; 50 μM compound) | Binding to PPARγ (Fluormone displacement signal) (PPARγ; 100 μM compound) | Binding to PPARγ (Fluormone displacement signal) (PPARγ; .1 μM compound) | Binding to PPARγ (Fluormone displacement signal) (PPARγ; .3 μM compound) | Compound | binding to PPARγ (in words) (PPARγ; FIG. 1 and Table B) | Mean blood pressure, Fasted ([1]; 6 hour fast, day 8) | Mean blood pressure, Fed ([1]; fed, day 7)
248 | 237 | 210 | 144 | 105 | 249 | 246 | CCc1ccc(CCOc2ccc(CC3(C)SC(=O)NC3=O)cc2)nc1 (single isomer, unassigned) [Compound 7] | – | – | –
229 | 230 | 204 | 148 | 108 | 244 | 243 | CCc1ccc(C(=CCO)COc2ccc(CC3SC(=O)NC3=O)cc2)nc1 (stereo not drawn) [Compound 13] | – | – | –
239 | 233 | 234 | 189 | 164 | 237 | 237 | CCc1ccc([C@H](O)COc2ccc(CC3(C)SC(=O)NC3=O)cc2)nc1 (stereo partly drawn) [Compound 9] | – | – | –
198 | 155 | 112 | 80 | 85 | 243 | 222 | CCc1ccc(C(COc2ccc(CC3SC(=O)NC3=O)cc2)CC(=O)OC)nc1 (stereo not drawn) [Compound 12] | – | – | –
234 | 224 | 200 | 122 | 91 | 236 | 230 | CCc1ccc(CCOc2ccc(CC3(C)SC(=O)NC3=O)cc2)nc1 (single isomer, unassigned) [Compound 4] | – | – | –
239 | 241 | 233 | 199 | 186 | 237 | 243 | CCc1ccc([C@@H](O)COc2ccc(CC3(C)SC(=O)NC3=O)cc2)nc1 (stereo partly drawn) [Compound 8] | – | – | –
233 | 223 | 198 | 126 | 99 | 246 | 246 | CCc1ccc(CCOc2ccc(CC3(C)SC(=O)NC3=O)cc2)nc1 (single isomer, unassigned) [Compound 6] | – | – | –
– | – | – | – | – | – | – | NS(=O)(=O)c1cc2c(cc1Cl)NCNS2(=O)=O [HCTZ, hydrochlorothiazide, reference compound] | – | 155 | 170
240 | 234 | 219 | 126 | 93 | 245 | 239 | CCc1ccc(C(=O)COc2ccc(CC3(C)SC(=O)NC3=O)cc2)nc1 (stereo not drawn) [Compound 10] | – | – | –
228 | 226 | 212 | 132 | 106 | 235 | 230 | CCc1ccc(C(O)COc2ccc(CC3(C)SC(=O)NC3=O)cc2)nc1 (stereo not drawn) [Compound 5] | – | – | –
232 | 229 | 165 | 128 | 78 | 230 | 227 | CCc1ccc(C(=CC(=O)OC)COc2ccc(CC3SC(=O)NC3=O)cc2)nc1 (stereo not drawn) [Compound 11] | – | – | –

Compound | Binding to PPARγ (Fluormone displacement signal) (PPARγ; 1 μM compound) | Binding to PPARγ (Fluormone displacement signal) (PPARγ; 3 μM compound) | Binding to PPARγ (Fluormone displacement signal) (PPARγ; 10 μM compound) | Binding to PPARγ (Fluormone displacement signal) (PPARγ; 50 μM compound) | Binding to PPARγ (Fluormone displacement signal) (PPARγ; 100 μM compound) | Binding to PPARγ (Fluormone displacement signal) (PPARγ; .1 μM compound) | Binding to PPARγ (Fluormone displacement signal) (PPARγ; .3 μM compound) | binding to PPARγ (in words) (PPARγ; FIG. 1 and Table B) | Mean blood pressure, Fasted ([1]; 6 hour fast, day 8) | Mean blood pressure, Fed ([1]; fed, day 7)
CCc1ccc([C@H](O)COc2ccc(CC3SC(=O)NC3=O)cc2)nc1 (stereo partly drawn) [Compound 3] | 203 | 185 | 134 | 88 | 77 | 226 | 221 | – | – | –
CCc1ccc([C@@H](O)COc2ccc(CC3SC(=O)NC3=O)cc2)nc1 (stereo partly drawn) [Compound 2] | 238 | 236 | 223 | 162 | 136 | 231 | 233 | particularly poor binders | – | –
